Measurements from article PMC8262356, “SLC26A6-selective inhibitor identified in a small-molecule screen blocks fluid absorption in small intestine” (JCI Insight, 2021).

Molecular target: T1, slc26a1 (Mus musculus, UniProt P58735)
T1 construct: expressed in transfected cells; host or cells: 293 T/17 cells, transient transfection with pIRES-HIF vector (IRES-YFP, not fused)
T1 sequence (P58735 1-704): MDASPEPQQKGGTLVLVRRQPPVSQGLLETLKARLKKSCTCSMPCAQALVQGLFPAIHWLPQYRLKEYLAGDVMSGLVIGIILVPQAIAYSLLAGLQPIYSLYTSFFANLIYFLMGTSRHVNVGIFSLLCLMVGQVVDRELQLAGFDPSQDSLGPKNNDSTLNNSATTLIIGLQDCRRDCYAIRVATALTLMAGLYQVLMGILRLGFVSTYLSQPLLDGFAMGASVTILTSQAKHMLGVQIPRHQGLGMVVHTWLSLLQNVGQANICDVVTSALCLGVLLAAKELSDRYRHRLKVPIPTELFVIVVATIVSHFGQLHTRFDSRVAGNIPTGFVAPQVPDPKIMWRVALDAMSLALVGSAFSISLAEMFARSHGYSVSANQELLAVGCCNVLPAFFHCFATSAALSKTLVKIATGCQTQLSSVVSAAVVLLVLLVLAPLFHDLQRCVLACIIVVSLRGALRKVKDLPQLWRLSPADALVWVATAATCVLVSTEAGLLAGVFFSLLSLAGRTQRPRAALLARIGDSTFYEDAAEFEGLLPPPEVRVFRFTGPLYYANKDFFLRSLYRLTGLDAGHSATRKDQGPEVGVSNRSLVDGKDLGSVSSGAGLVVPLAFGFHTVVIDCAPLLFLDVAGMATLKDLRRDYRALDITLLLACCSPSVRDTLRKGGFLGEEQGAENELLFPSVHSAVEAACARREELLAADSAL
Assay: Selectivity: Cl-/I- exchange in 293T/17 cells transfected with slc26a1 and YFP
Type: cell-based
Conditions: 25 μM, 10 min preincubation
Procedure: YFP-based cellular assays of slc26a3, slc26a4, SLC26A9, and TMEM16A function were performed as described previously ([7]). Slc26a1 and slc26a2 assays were done in transfected HEK 293 cells (see Supplemental Methods for details). Niflumic acid was used as a positive control for SLC26A isoforms ([7]). For TMEM16A, the selective small-molecule inhibitor TMinh-23 was used as a positive control ([28]). The activities of ENaC, CFTR, and CaCC were determined using well-differentiated HBE cells as described previously ([13]). Cl^–/HCO3^– exchange was measured as described previously ([7], [10], [11]). Briefly, cell cytoplasm was labeled with the pH-sensitive fluorescent dye BCECF-AM (Invitrogen), and Cl^–/HCO3^– exchange was measured in response to addition of a gluconate-containing solution to drive exchange of cytoplasmic Cl^– for extracellular HCO3^–, producing cytoplasmic alkalinization.
Slc26a1 and slc26a2 cDNA constructs
The complementar y DNA sequences of slc26a1 and slc26a2 were generated using gB LOCK gene fragments (Int egrat ed DNA technology, Coralville, IA) in the plasmid vector pIRESpuro3 (Takara, San J ose, CA). […]
PBS. […] Background-corrected, area-integrat ed single cell fluorescence was calcul ated for determination of slc26a1 / slc26a2 activit y from the rate of fluorescence quenching. […]

effect on slc26a1 activity: did not affect
SMILES: Cc1c(Br)c(C(F)(F)F)nn1CC(=O)N1CCc2nc3cc(-c4ccccc4)[nH]n3c(=O)c2C1 [PAT1inh-B01]
